US10988451B2, “MCL-1 inhibitors” (Gilead Sciences, Inc., priority 2018, dated 2021)

target: MCL-1/Bim (Homo sapiens (Human), UniProt Q07820); assay: MCL-1/Bim Binding AlphaLISA Assay; details: 6xHis-Mcl-1 (171-327) and biotinylated Bim peptide (51-76)
Description: MCL-1/Bim Binding AlphaLISA Assay.
Inhibition of the MCL-1 and Bim interaction was measured in the following AlphaLISA assay.
Recombinant human MCL-1 protein (C-terminal 6×His Tagged Mcl-1 containing residues 171-327) was generated at Gilead Sciences, Inc. (Foster City, Calif.). A biotinylated peptide derived from human Bim (residues 51-76) was purchased from CPC Scientific (Sunnyvale, Calif.). (CPC 834113). AlphaLISA anti-6His-acceptor beads (AL128R), AlphaScreen Streptavidin donor beads (6760002B), and Proxiplate-384 Plus (6008289) were purchased from PerkinElmer.
The AlphaLISA assay was performed in a 384-well Proxiplate in a total volume of 40 μL. The reaction mixture contained 0.0625 nM 6× His-Mcl-1 (171-327), 0.0625 nM biotinylated-Bim peptide, 10 μg/mL AlphaLISA anti-6×His-AlphaLISA acceptor beads, 40 μg/mL AlphaScreen streptavidin donor beads, and serially diluted test compounds in the binding buffer (20 mM Hepes, pH 7.5 (Teknova H1035); 150 mM NaCl (Promega V4221); 0.002% Brij 35 (Thermo Scientific 20150); 1 mM Dithiothreitol (DTT) Solution (Affymetrix 70726); 0.01% BSA (BioLabs B9000S)). 1,000× test compounds were pre-spotted onto 384-well Proxiplate (Labcyte Echo) by Echo 555 Liquid Handler (Labcyte Inc., San Jose, Calif.) followed by incubation of 5 μl Mcl-1(171-327) for 1 hour. Then 5 μL Bim (51-76) was added and incubated for 2 hours. Five μL AlphaLISA anti-6His-AlphaLISA acceptor beads were then added for 1 hour followed by addition of 5 μL AlphaScreen streptavidin donor beads for 1 hour. The reaction plates were then read on an Envision multimode reader (PerkinElmer) using AlphaScreen settings. […] Percent inhibition was calculated as shown below: % Inhibition=100%*(Well−Neg)/(Pos−Neg) Neg: negative control, DMSO Pos: positive control, no Mcl-1 protein, no biotinylated-Bim peptide

Sequence of MCL-1/Bim (Q07820 171-327): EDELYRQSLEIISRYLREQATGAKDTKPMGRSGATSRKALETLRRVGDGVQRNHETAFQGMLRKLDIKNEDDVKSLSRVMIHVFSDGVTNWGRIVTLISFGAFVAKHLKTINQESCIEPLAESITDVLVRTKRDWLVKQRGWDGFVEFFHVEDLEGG

Row | Compound | IC50 [nM]
1 | CO[C@H]1/C=C/C[C@H](C)C[S@@](=O)(NC(=O)c2ccc3c(c2)COCC3)=NC(=O)c2ccc3c(c2)N(C[C@@H]2CC[C@H]21)C[C@@]1(CCCc2cc(Cl)ccc21)CO3 [Example 157] | 0.234
2 | CO[C@H]1/C=C/C[C@H](C)C[S@@](=O)(NC(=O)NCC2CC2)=NC(=O)c2ccc3c(c2)N(C[C@@H]2CC[C@H]21)C[C@@]1(CCCc2cc(Cl)ccc21)CO3 [Example 107] | 0.1
3 | CCC(=O)N[S@]1(=O)=NC(=O)c2ccc3c(c2)N(C[C@@H]2CC[C@H]2[C@@H](OC)/C=C/CCCC1)C[C@@]1(CCCc2cc(Cl)ccc21)CO3 [Example 69] | 4
4 | CCC(=O)N[S@]1(=O)=NC(=O)c2ccc3c(c2)N(C[C@@H]2CC[C@H]2[C@@H](O)/C=C/CCC1)C[C@@]1(CCCc2cc(Cl)ccc21)CO3 [Example 63] | 1.4
5 | CO[C@H]1/C=C/C[C@H](C)C[S@@](=O)(NC(=O)C2CC(OC(F)F)C2)=NC(=O)c2ccc3c(c2)N(C[C@@H]2CC[C@H]21)C[C@@]1(CCCc2cc(Cl)ccc21)CO3 (stereo partly drawn) [Example 431] | 0.121
6 | CO[C@H]1/C=C/CCC[S@@](N)(=O)=NC(=O)c2ccc3c(c2)N(C[C@@H]2CC[C@H]21)C[C@@]1(CCCc2cc(Cl)ccc21)CO3 [Example 5] | 60.2
7 | CCC(=O)N[S@@]1(=O)=NC(=O)c2ccc3c(c2)N(C[C@@H]2CC[C@H]2[C@@H](OC)CCCCC1)C[C@@]1(CCCc2cc(Cl)ccc21)CO3 [Example 11] | 6.5
8 | CCC(=O)NS1(=O)=NC(=O)c2ccc3c(c2)N(C[C@@H]2CC[C@H]2[C@@H](OC)/C=C/CCC1)C[C@@]1(CCCc2cc(Cl)ccc21)CO3 (single isomer, unassigned) [Example 4] | 0.7
9 | CCOC(=O)N[S@]1(=O)=NC(=O)c2ccc3c(c2)N(C[C@@H]2CC[C@H]2[C@@H](OC)/C=C/CCC1)C[C@@]1(CCCc2cc(Cl)ccc21)CO3 [Example 9] | 6.6
10 | CCOC(=O)NS1(=O)=NC(=O)c2ccc3c(c2)N(C[C@@H]2CC[C@H]2[C@@H](OC)/C=C/CCC1)C[C@@]1(CCCc2cc(Cl)ccc21)CO3 (single isomer, unassigned) [Example 10] | 3.6
11 | CCC(=O)N[S@@]1(=O)=NC(=O)c2ccc3c(c2)N(C[C@@H]2CC[C@H]2[C@@H](OC)CCCCC1)C[C@@]1(CCCc2ccccc21)CO3 [Example 16] | 4.2
12 | CCNC(=O)N[S@@]1(=O)=NC(=O)c2ccc3c(c2)N(C[C@@H]2CC[C@H]2[C@@H](OC)CCCCC1)C[C@@]1(CCCc2cc(Cl)ccc21)CO3 [Example 13] | 1.8
13 | CCNC(=O)N[S@@]1(=O)=NC(=O)c2ccc3c(c2)N(C[C@@H]2CC[C@H]2[C@@H](OC)CCCCC1)C[C@@]1(CCCc2cc(Cl)ccc21)CO3 [Example 14] | 0.3
14 | COc1nn(C)cc1C(=O)N[S@@]1(=O)=NC(=O)c2ccc3c(c2)N(C[C@@H]2CC[C@H]2[C@@H](O)/C=C/[C@H](O)[C@H](C)C1)C[C@@]1(CCCc2cc(Cl)ccc21)CO3 [Example 279] | 0.041
15 | CCC(=O)N[S@@]1(=O)=NC(=O)c2ccc3c(c2)N(C[C@@H]2CC[C@H]2[C@@H](O)/C=C/CCC1)C[C@@]1(CCCc2cc(Cl)ccc21)CO3 [Example 62] | 0.4
16 | CCC(=O)N[S@]1(=O)=NC(=O)c2ccc3c(c2)N(C[C@@H]2CC[C@H]2[C@@H](OC)/C=C/CCC1)C[C@@]1(CCCc2cc(Cl)ccc21)CO3 [Example 3] | 4.1

test system: SKBR3 cells; assay: SKBR3 Cell Viability Assay; format: cell-based; details: 72 hours, CellTiter Glo, read-out: MCL-1 CV SKBR3 EC50
Description: SKBR3 Cell Viability Assay Materials
SKBR3 Cells (ATCC HTB-30) were obtained from ATCC (Manassas, Va.) and cultured in McCoy 5A's medium (ATCC 30-2007)+10% fetal bovine serum (SH30071.03, HyClone, Pittsburgh, Pa.) plus 1× Penicillin-Streptomycin L-glutamine (Corning 30-009-C1, Corning, N.Y.)).
The cell viability assay was conducted in a 384-well tissue culture plate (Grenier 781086, Monroe, N.C.) in a total volume of 70 μL. Test compounds were prepared in 1,000×, serially diluted, and pre-spotted into 384-well tissue culture plate by Echo 555 Liquid Handler (Labcyte Inc., San Jose, Calif.). Seventy μ1 of 6,000 SKBR3 cells were dispensed into each well of the plate and incubated at 37° C. with 5% CO2 for 72 hours. At the end of incubation, 2× CellTiter Glo (CTG) reagents (1 part buffer with 2 parts substrate) (Promega, Madison, Wis.) were prepared, and the plate and the reagent were equilibrated to room temperature for 30 minutes. CTG reagent was added to each plate by Biomek FX at 20 μL/well with 5 times pipetting and mixing to induce cell lysis. Luminescence was read by Envision multimode reader (PerkinElmer). […] Percent inhibition was calculated as followed: % Inhibition=100%*(Well−Neg)/(Pos−Neg) Neg, negative control, DMSO Pos, positive control, 10 μM Puromycin

Row | Compound | EC50 [nM]
17 | CO[C@H]1/C=C/C[C@H](C)C[S@@](=O)(NC(=O)c2cc3n(c2)CCc2c-3cnn2C)=NC(=O)c2ccc3c(c2)N(C[C@@H]2CC[C@H]21)C[C@@]1(CCCc2cc(Cl)ccc21)CO3 [Example 208] | 45
18 | COC1CN(C(=O)N[S@@]2(=O)=NC(=O)c3ccc4c(c3)N(C[C@@H]3CC[C@H]3[C@@H](O)/C=C/C[C@H](C)C2)C[C@@]2(CCCc3cc(Cl)ccc32)CO4)C1 [Example 266] | 53.8
19 | CO[C@H]1/C=C/CCC[S@@](=O)(NC(=O)C2CC2)=NC(=O)c2ccc3c(c2)N(C[C@@H]2CC[C@H]21)C[C@@]1(CCCc2cc(Cl)ccc21)CO3 [Example 27] | 2080
20 | CO[C@H]1/C=C\C[C@H](C)[C@@H](C)[S@@](=O)(NC(=O)COC2CCOCC2)=NC(=O)c2ccc3c(c2)N(C[C@@H]2CC[C@H]21)C[C@@]1(CCCc2cc(Cl)ccc21)CO3 [Example 406] | 332
21 | CO[C@H]1/C=C/C[C@H](C)C[S@@](=O)(NC(=O)N2CC(OC(=O)N(C)C)C2)=NC(=O)c2ccc3c(c2)N(C[C@@H]2CC[C@H]21)C[C@@]1(CCCc2cc(Cl)ccc21)CO3 [Example 292] | 45.1
22 | COc1ccc(C(=O)N[S@@]2(=O)=NC(=O)c3ccc4c(c3)N(C[C@@H]3CC[C@H]3[C@@H](OC)/C=C/C[C@H](C)C2)C[C@@]2(CCCc3cc(Cl)ccc32)CO4)cc1 [Example 273] | 81
23 | CO[C@H]1/C=C/CCC[S@@](=O)(NC(=O)C2COC2)=NC(=O)c2ccc3c(c2)N(C[C@@H]2CC[C@H]21)C[C@@]1(CCCc2cc(Cl)ccc21)CO3 [Example 24] | 891
24 | COC1CCn2cc(C(=O)N[S@@]3(=O)=NC(=O)c4ccc5c(c4)N(C[C@@H]4CC[C@H]4[C@@H](OC)/C=C/C[C@H](C)C3)C[C@@]3(CCCc4cc(Cl)ccc43)CO5)cc2C1 (stereo partly drawn) [Example 175] | 33.9
25 | CO[C@H]1/C=C/CCC[S@@](=O)(NC(=O)CC(F)(F)F)=NC(=O)c2ccc3c(c2)N(C[C@@H]2CC[C@H]21)C[C@@]1(CCCc2cc(Cl)ccc21)CO3 [Example 23] | 1450
26 | CO[C@H]1/C=C/CCC[S@@](=O)(NC(=O)Cc2ccnn2C)=NC(=O)c2ccc3c(c2)N(C[C@@H]2CC[C@H]21)C[C@@]1(CCCc2cc(Cl)ccc21)CO3 [Example 29] | 1840
27 | CO[C@H]1/C=C/C[C@H](C)C[S@@](=O)(NC(=O)N2C[C@@H](OC)[C@@H]2C)=NC(=O)c2ccc3c(c2)N(C[C@@H]2CC[C@H]21)C[C@@]1(CCCc2cc(Cl)ccc21)CO3 [Example 253] | 39.2
28 | CO[C@H]1/C=C/C[C@H](C)C[S@@](=O)(NC(=O)c2cn(C)nc2OCCN2CCOCC2)=NC(=O)c2ccc3c(c2)N(C[C@@H]2CC[C@H]21)C[C@@]1(CCCc2cc(Cl)ccc21)CO3 [Example 319] | 19.9
29 | CO[C@H]1/C=C/CCC[S@@](=O)(NC(=O)CC2CC2)=NC(=O)c2ccc3c(c2)N(C[C@@H]2CC[C@H]21)C[C@@]1(CCCc2cc(Cl)ccc21)CO3 [Example 21] | 1300
30 | CO[C@H]1/C=C/CCC[S@@](=O)(NC(=O)C2CCC2)=NC(=O)c2ccc3c(c2)N(C[C@@H]2CC[C@H]21)C[C@@]1(CCCc2cc(Cl)ccc21)CO3 [Example 31] | 2590
31 | CO[C@H]1/C=C/CCC[S@@](=O)(NC(=O)CCS(C)(=O)=O)=NC(=O)c2ccc3c(c2)N(C[C@@H]2CC[C@H]21)C[C@@]1(CCCc2cc(Cl)ccc21)CO3 [Example 28] | 8410
32 | CO[C@H]1/C=C/CCC[S@@](=O)(NC(=O)Cc2ncccn2)=NC(=O)c2ccc3c(c2)N(C[C@@H]2CC[C@H]21)C[C@@]1(CCCc2cc(Cl)ccc21)CO3 [Example 30] | 1840

same assay, conditions: Homo sapiens, SK-BR-3, 72 h, CellTiter Glo, read-out: MCL-1 CV SKBR3 EC50

Row | EC50 [nM] | Compound
33 | 64.8 | CO[C@H]1/C=C/C[C@H](C)C[S@@](=O)(NC(=O)c2ccc3c(c2)COCC3)=NC(=O)c2ccc3c(c2)N(C[C@@H]2CC[C@H]21)C[C@@]1(CCCc2cc(Cl)ccc21)CO3 [Example 157]
34 | 1400 | COc1nn(C)cc1C(=O)NS1(=O)=NC(=O)c2ccc3c(c2)N(C[C@@H]2CC[C@H]2[C@@H](OC)/C=C/C[C@H](C)C1)C[C@@]1(CCCc2cc(Cl)ccc21)CO3 (single isomer, unassigned) [Example 388]
35 | 103 | CO[C@H]1/C=C/C[C@H](C)C[S@@](=O)(NC(=O)c2cc3n(c2F)CCOC3)=NC(=O)c2ccc3c(c2)N(C[C@@H]2CC[C@H]21)C[C@@]1(CCCc2cc(Cl)ccc21)CO3 [Example 174]
36 | 24.1 | COc1nn(C)cc1C(=O)N[S@@]1(=O)=NC(=O)c2ccc3c(c2)N(C[C@@H]2CC[C@H]2[C@@H](OC)/C=C/C[C@H](C)C1)C[C@@]1(CCCc2cc(Cl)ccc21)CO3 [Example 154]
